Consider 2 compounds from patent US20140359899A1 (priority 2011, published 2014).

Each structure is given as a SMILES string.

One test addresses T1, AtSWEET12 (Arabidopsis thaliana, UniProt O82587).
T1 construct: Primers for the full length ORF of AtSWEET11 (AtSWT11FattB1 and AtSWT11attB2) or AtSWEET12; expressed in transfected cells; host or cells: Xenopus oocytes injected with capped cRNA from pOO2-GW
Description: Oocyte efflux assay: [14C]-sugar efflux from Xenopus oocytes expressing AtSWEET12. Format: cell-based. The note with it: FIG. 4D.

For test [1], the target named is FRET sucrose sensor FLIPsuc90μΔ1V. The note with it: detection level of the sucrose sensor; cited from earlier work.

T1 sequence (O82587 whole entry): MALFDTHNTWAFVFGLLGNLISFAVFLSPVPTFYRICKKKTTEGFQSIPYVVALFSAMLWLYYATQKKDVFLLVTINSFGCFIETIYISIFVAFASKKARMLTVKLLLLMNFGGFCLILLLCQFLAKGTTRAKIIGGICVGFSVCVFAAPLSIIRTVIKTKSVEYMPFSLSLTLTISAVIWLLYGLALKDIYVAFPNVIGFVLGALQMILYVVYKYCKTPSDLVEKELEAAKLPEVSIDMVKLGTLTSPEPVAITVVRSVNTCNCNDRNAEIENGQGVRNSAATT

Regarding `OC[C@H]1O[C@H](O[C@H]2[C@H](O)[C@@H](O)C(O)O[C@@H]2CO)[C@H](O)[C@@H](O)[C@@H]1O` (mixture of isomers) [Maltose, maltose], the Maltose efflux result at AtSWEET12 is “undetectable”. Turning to `OC[C@H]1O[C@@](CO)(O[C@H]2O[C@H](CO)[C@@H](O)[C@H](O)[C@H]2O)[C@@H](O)[C@@H]1O` [sucrose], in test [1], the Kd was around 90 µM.
